Values quoted from earlier work in US8728545B2, “Extraction method for providing an organic certifiable Stevia rebaudiana extract” (Justbio Inc., priority 2010, dated 2014).
Peptide text beside a SMILES is read from it.

Legend:
[1] = in water; Crammer and Ikan, 1986
[2] = for Sweetness compared to sucrose: principal steviol glycosides found in stevia leaves; for Relative sweetness among steviol glycosides (in words): comparison between glycosides, Crammer and Ikan 1986, 1987

Compound	Sweetness in Sucrose Equivalence (% SE) [1] [% SE]	Sweetness compared to sucrose [2]	Relative sweetness among steviol glycosides (in words) [2]
CC1=CC(=O)[N-]S(=O)(=O)O1.[K+] [Acesulfame-K]	11.6	–	–
COC(=O)[C@H](Cc1ccccc1)NC(=O)[C@@H](N)CC(=O)O [Aspartame] (H-Asp-Phe-OMe)	16.0	–	–
O=S(=O)([O-])NC1CCCCC1.[Na+] [Cyclamate-Na]	15.2	–	–
C=C1C[C@@]23CC[C@H]4[C@@](C)(CCC[C@@]4(C)C(=O)O[C@@H]4O[C@H](CO)[C@@H](O)[C@H](O)[C@H]4O)[C@@H]2CC[C@]1(O[C@@H]1O[C@H](CO)[C@@H](O)[C@H](O)[C@H]1O[C@@H]1O[C@@H](C)[C@H](O)[C@@H](O)[C@H]1O)C3 [Dulcoside A]	–	50-120 fold	–
CC1(C)[C@@H](O[C@H]2O[C@H](C(=O)O)[C@@H](O)[C@H](O)[C@H]2O[C@@H]2O[C@H](C(=O)O)[C@@H](O)[C@H](O)[C@H]2O)CC[C@]2(C)[C@H]3C(=O)C=C4[C@@H]5C[C@@](C)(C(=O)O)CC[C@]5(C)CC[C@@]4(C)[C@]3(C)CC[C@@H]12.N [Monoammonium Glycyrhisinate]	7.3	–	–
COc1ccc(CCC(=O)c2c(O)cc(O[C@@H]3O[C@H](CO)[C@@H](O)[C@H](O)[C@H]3O[C@@H]3O[C@@H](C)[C@H](O)[C@@H](O)[C@H]3O)cc2O)cc1O [Neohesperidin Didydrochalcone]	9.8	–	–
COC(=O)[C@H](Cc1ccccc1)NC(=O)[C@H](CC(=O)O)NCCC(C)(C)C [Neotame]	15.1	–	–
C=C1C[C@@]23CC[C@H]4[C@@](C)(CCC[C@@]4(C)C(=O)O[C@@H]4O[C@H](CO)[C@@H](O)[C@H](O)[C@H]4O)[C@@H]2CC[C@]1(O[C@@H]1O[C@H](CO)[C@@H](O)[C@H](O[C@@H]2O[C@H](CO)[C@@H](O)[C@H](O)[C@H]2O)[C@H]1O[C@@H]1O[C@H](CO)[C@@H](O)[C@H](O)[C@H]1O)C3 [Rebaudioside A]	–	250-450 fold	the sweetest
C=C1C[C@@]23CC[C@H]4[C@@](C)(CCC[C@@]4(C)C(=O)O[C@@H]4O[C@H](CO)[C@@H](O)[C@H](O)[C@H]4O[C@@H]4O[C@H](CO)[C@@H](O)[C@H](O)[C@H]4O)[C@@H]2CC[C@]1(O[C@@H]1O[C@H](CO)[C@@H](O)[C@H](O[C@@H]2O[C@H](CO)[C@@H](O)[C@H](O)[C@H]2O)[C@H]1O[C@@H]1O[C@H](CO)[C@@H](O)[C@H](O)[C@H]1O)C3 [Rebaudioside D]	10.1	240-450 fold	as sweet as rebaudioside A
C=C1C[C@@]23CC[C@H]4[C@@](C)(CCC[C@@]4(C)C(=O)O[C@@H]4O[C@H](CO)[C@@H](O)[C@H](O)[C@H]4O[C@@H]4O[C@H](CO)[C@@H](O)[C@H](O)[C@H]4O)[C@@H]2CC[C@]1(O[C@@H]1O[C@H](CO)[C@@H](O)[C@H](O)[C@H]1O[C@@H]1O[C@H](CO)[C@@H](O)[C@H](O)[C@H]1O)C3 [Rebaudioside E]	–	150-300 fold	as sweet as stevioside
O=C1[N-]S(=O)(=O)c2ccccc21.[Na+] [Saccharin-Na]	10.1	–	–
C=C1C[C@@]23CC[C@H]4[C@@](C)(CCC[C@@]4(C)C(=O)[O-])[C@@H]2CC[C@]1(O[C@@H]1O[C@@H](CO)[C@@H](O)[C@H](O)[C@@H]1O[C@@H]1O[C@@H](CO)[C@@H](O)[C@H](O)[C@@H]1O)C3.[Na+] [Steviobioside]	–	100-125 fold	–
C=C1C[C@@]23CC[C@H]4[C@@](C)(CCC[C@@]4(C)C(=O)O[C@@H]4O[C@H](CO)[C@@H](O)[C@H](O)[C@H]4O)[C@@H]2CC[C@]1(O[C@@H]1O[C@H](CO)[C@@H](O)[C@H](O)[C@H]1O[C@@H]1O[C@H](CO)[C@@H](O)[C@H](O)[C@H]1O)C3 [Stevioside]	–	300 fold	–
OC[C@H]1O[C@H](O[C@]2(CCl)O[C@H](CCl)[C@@H](O)[C@@H]2O)[C@H](O)[C@@H](O)[C@H]1Cl [Sucralose]	13.0	–	–
Rebaudioside B	–	300-350 fold	–
Rebaudioside C	–	50-120 fold	–
